Peptide text beside a SMILES is read from it. * marks the point of attachment. Cbz = O=C(OCc1ccccc1)*

The subject of data set [1] is HdhQ111 / HdhQ7 mouse striatal cells. Nature of the data set: VCP mitochondrial level, mouse striatal cells (western blot). It counts as cell-based. The following applies: HdhQ111 cells, Htt siRNA, 3 days. The procedure:
(§1) Immortalized striatal cell lines HdhQ111 mutant and HdhQ7 wt cells were obtained from the CHDI Foundation. Cells were cultured in DMEM supplemented with 10% FBS, 100 μg/ml penicillin, 100 μg ml^−1 streptomycin, and 400 μg ml^−1 G418. Cells were grown at 33 °C in a 5% CO2 incubator. Cells within 14 passages were used in all experiments.
(§2) For silencing Htt and VCP in HD striatal cells, control siRNA, mouse Htt and mouse VCP siRNA were purchased from Thermo Fisher Scientific. HdhQ7 and HdhQ111 cells were transfected either with control siRNA, or Htt or VCP siRNA using TransIT-TKO Transfection Reagent (Mirus Bio, LLC), according to the manufacturer's instructions. The sequences for the siRNAs used in this study are as follows: mouse Htt, 5′-[…]-3′; Mouse VCP, 5′-GAGAGCAACCUUCGUAAG-3′; control non-targeting siRNA, 5′-TTCTCCGAACGTGTCACGT-3′.
(§3) Cells were washed with cold PBS and incubated on ice for 30 min in a lysis buffer (250 mM sucrose, 20 mM HEPES-NaOH, pH 7.5, 10 mM KCl, 1.5 mM MgCl2, 1 mM EDTA, protease inhibitor cocktail and phosphatase inhibitor cocktail). Mouse brains were minced and homogenized in the lysis buffer and then placed on ice for 30 min. Collected cells or tissue were disrupted 20 times by repeated aspiration through a 25-gauge needle, followed by a 30-gauge needle. The homogenates were spun at 800 g for 10 min at 4 °C, and the resulting supernatants were spun at 10,000 g for 20 min at 4 °C. The pellets were washed with lysis buffer and spun at 10,000 g again for 20 min at 4 °C. The final pellets were suspended in lysis buffer containing 1% Triton X-100 and were mitochondrial-rich lysate fractions. The supernatant was centrifuged at 100,000 g, 4 °C, for 1 h, the pellets were suspended in lysis buffer containing 1% Triton X-100 as ER fractions. The final supernatant was cytosolic fractions. The mitochondrial proteins VDAC, the ER protein WFS1 and the cytosolic protein Enolase were used as loading controls for mitochondrial, ER and cytosolic fractions, respectively.
(§4) Protein concentrations were determined by Bradford assay. […]
(In general: A western blot detects proteins with antibodies after separation by electrophoresis.)

Data set [2] has as its system HdhQ111 mouse striatal cells. As to the kind of experiment: Mitochondria-associated LC3 II level. It counts as cell-based. The following applies: VCP siRNA, 48 h.
Excerpt: as §2
as §3, with “The supernatant was centrifuged at 100,000 g, 4 °C, for 1 h, the pellets were suspended in lysis buffer containing 1% Triton X-100 as ER fractions. The final supernatant was cytosolic fractions. The mitochondrial proteins VDAC, the ER protein WFS1 and the cytosolic protein Enolase were used as loading controls for mitochondrial, ER and cytosolic fractions, respectively.” left out
as §4

Data set [3] has as its system HdhQ111 / HdhQ7 mouse striatal cells. As to the kind of experiment: Mitochondrial membrane potential (TMRM), mouse striatal cells. It counts as cell-based. The conditions noted are these: HdhQ111 cells, VCP siRNA, three days. The procedure:
as §1, §2
To determine mitochondrial mass in cultures, cells were stained with antibodies against Tom20 or stained with Mitotracker green. The fluorescent density of Tom20 (1:500) or mitotracker green was quantitated using NIH Image J software. To measure the membrane potential of mitochondria in cultures, cells were incubated with 0.25 μM tetra-methyl rhodamine (Invitrogen Life Science) for 20 min at 37 °C. To determine lysosomal activity, cells were incubated with Lyso-ID Red dye (Enzo Life Science) for 30 min at 37 °C. The images were visualized by microscope and quantitation of the density of red fluorescence was carried out using NIH ImageJ software. For immunocytochemistry study, at least 100 cells per group were counted and quantitated by an observer blind to experimental conditions.

A further data set concerns VCP. The conditions noted are these: cited from earlier work. From the text:
We next ask what specific function VCP mediates on mitochondria from HD models. VCP knock-out is lethal in mice[34].

Data set [4] has as its system Htt or mtHtt protein in HdhQ7 and HdhQ111 cells. As to the kind of experiment: Htt/mtHtt protein level (western blot). It counts as cell-based, mouse. The conditions noted are these: 16 h, n = 3. How it is done: Protein concentrations were determined by Bradford assay. Protein was resuspended in Laemmli buffer, loaded on SDS–PAGE, and transferred onto nitrocellulose membranes. Membranes were probed with the indicated antibodies, followed by visualization with ECL. Representative blots have been cropped for presentation. Images of full-size blots are presented in Supplementary Fig. 9.
Supplementary Figure 3: Htt and mtHtt are not substrates of VCP . Left: HdhQ7 and HdhQ111 cells were treated with MG132 (10 µM for 16 hours). Protein levels of Htt were determined in the total lysates of the cells. Actin was used as a loading control. The representative blots were from three independent experiments. Right: HdhQ7 and HdhQ111 were treated with Eer I (Eeyarestatin I, 5μ M for 16 hours). Protein levels of Htt were determined. Mcl-1, a mitochondrial Bcl-2 family protein, was used as a positive control. Mcl-1 has been reported to be a substrate of VCP on mitochondria and it is degraded via the ubiquitin-proteasome system. The representative blots were from three independent […]
(1 picture or pasted object on this page, not shown here)

Take “5′-GGUUUAUGAACUGACUUUGTT-3′ [Htt siRNA, reference compound]”: the “VCP translocation to mitochondria” value in data set [1] is listed as “abolished VCP translocation to mitochondria”.

For “5′-GAGAGCAACCUUCGUAAG-3′ [VCP siRNA, reference compound]”, the “mitochondria-associated LC3 II” value in data set [2] is recorded as “reduced the levels of mitochondria-associated LC3 II”. The mitochondrial membrane potential result in data set [3] is given as “similarly promoted the MMP”.

Turning to `c1ccc(CNc2nc(NCc3ccccc3)c3ccccc3n2)cc1` [N2,N4-dibenzylquinazoline-2,4-diamine], in the data set with VCP, the cell death entry is given as “rapidly lead to cell death” and the specificity entry is listed as “non-specific”.

For the molecule `CC(C)C[C@@H](C=O)NC(=O)[C@H](CC(C)C)NC(=O)[C@H](CC(C)C)NC(=O)OCc1ccccc1` [MG132] (Cbz-Leu-Leu-Leu-aldehyde), the “Htt or mtHtt protein levels” value in data set [4] (MG132 10 µM) is on record as “did not affect Htt or mtHtt protein levels”.

For `CC1(C)C(N(O)C(=O)Nc2ccc(Cl)cc2)N(c2ccc(Cl)cc2)C(=O)N1CC(=O)N/N=C/C=C/c1ccc([N+](=O)[O-])o1` (stereo not drawn) [Eeyarestatin I], in data set [4] (Eeyarestatin I 5 μM), the “Htt or mtHtt protein levels” value is “did not affect Htt or mtHtt protein levels”. In the data set with VCP, the cell death result was “rapidly lead to cell death” and the specificity result is reported as “non-specific”.

These data come from publication PMC5007466, “VCP recruitment to mitochondria causes mitophagy impairment and neurodegeneration in models of Huntington's disease” (Nature Communications, 2016).
